Assay type in all cases: in vivo
For one experiment, the system named is Male rats. Description: Anti-inflammatory activity (a-tocopherol pouch test). The method, then: A rapid subcutaneous injection of 25 mL of air was made between the scapulae of each rat. […] The test compound was administered in daily oral doses for 7 days beginning on the day of pouch formation. The compound to be tested was suspended in 1% gum tragacanth. Twenty-four hours after the last medication, the pouches were dissected free, and the fluid volume was measured. The inhibition of liquid exudate is a measure of the anti=inflammatory activity.

The test system of experiment [1] is Mature male rats were bilaterally adrenalectomized. As to the kind of experiment: Glycogenic activity (liver glycogen deposition test). From the text: Glycogenic Activity: Mature male rats were bilaterally adrenalectomized 5 days prior to the test. These rats were medicated orally with the test compound for 5 days. Seven hours after the last medication, the rats (which have been fasted overnight) were anesthetized with sodium pentobarbital and a portion of one lobe of the liver was removed and frozen on dry ice for subsequent glycogen determination.

The test system of the next experiment is Mature female rats. Description: Endocrine profile (thymus, adrenal and body weight after 2 weeks oral medication). The conditions noted are these: compared with the controls. As to the method: The test procedures used to determine the biological activities of the compounds of the invention were carried out as follows: • Endocrine Profile: Mature female rats with an average body weight of 202 g and a body weight range of 15 g or less were medicated orally with test compound for 2 weeks. The test compound was prepared as a solution or suspension in 1% gum tragacanth or 0.75% methyl cellulose. On the day following the last medication, the rats were killed and the thymus and adrenal of each rat were removed, cleaned, and weighed. Body weights and food consumptions were also recorded.

Turning to `CC12Cc3cnn(-c4ccc(F)cc4)c3C=C1CCC1OC3(CC=C12)C(=O)c1ccccc1C3=O` (centres unmarked) [Compound I (R = F), 8'-(4-Fluorophenyl)-2',3',5',6',ll',lla'-hexahydro-lla'-methylspiro-2H-indene[2,3']-3H-pyrazolo[4",5":7',6']-naphtho-[2,1-b] pyran-1,3-dione], in the experiment with Male rats (Rattus norvegicus, 168 h, daily oral doses for 7 days, male rats, inhibition of liquid exudate), the ED50 is 10 mg/kg. The “anti-inflammatory activity by the a-tocopherol pouch test” value with Male rats (rats, general statement) was “anti-inflammatory activity”. Further, in experiment [1] (dose level of 9 mg/kg/day x 5, oral, adrenalectomized male rats, vehicle 2.2 + 0.04 mg/g), the “liver glycogen deposition value” is listed as 21.8 + 4.4 mg/g of tissue. The “glucocorticoid activity by the liver glycogen deposition test” value in experiment [1] (oral, rats, general statement) is reported as “oral glucocorticoid activity”. In the experiment with Mature female rats (dose level of 1 mg/kg), the “reduction in adrenal weight” value is recorded as 56%, the “reduction in body weight gain” value stood at 129% and the “reduction in thymus weight” value stood at 61%.
With `CC12Cc3cnn(-c4ccccc4)c3C=C1CCC1OC3(CC=C12)C(=O)c1ccccc1C3=O` (centres unmarked) [Compound I (R = H), 2',3',5',6',11',11a'-Hexahydro-11a'-methyl-8'-phenylspiro 2H-indene[2,3']-3H-pyrazolo[4",5":7',6']naphtho[2,1-b] pyran-1,3-dione], the “activity in the a-tocopherol pouch test” value with Male rats (dose level of 100 mg/kg, daily oral doses for 7 days, male rats) is “inactive”. Moreover, in the experiment on Mature female rats (dose level of 5 mg/kg), the “reduction in adrenal weight” value is listed as 38%, the “reduction in body weight gain” value is 62% and the “reduction in thymus weight” value amounted to 51%.

(Values after patent publication EP0103030A1, “Polycyclic fused pyrazole compounds, useful as anti-inflammatory agents, and preparation thereof” (STERLING DRUG INC., priority 1982, dated 1984).)
